SMILES strings stand for the structures.

The text below walks through data of patent US10711002B2, “Purine compounds and method for the treatment of cancer” (THE ROYAL INSTITUTION FOR THE ADVANCEMENT OF …, priority 2016, dated 2020).

Holding throughout (test): High-throughput kinase assay
Format in all cases: biochemical

One assay concerns the target T1, AURKA (Aurora A) (Homo sapiens, UniProt O14965).
T1 sequence (O14965 1-403): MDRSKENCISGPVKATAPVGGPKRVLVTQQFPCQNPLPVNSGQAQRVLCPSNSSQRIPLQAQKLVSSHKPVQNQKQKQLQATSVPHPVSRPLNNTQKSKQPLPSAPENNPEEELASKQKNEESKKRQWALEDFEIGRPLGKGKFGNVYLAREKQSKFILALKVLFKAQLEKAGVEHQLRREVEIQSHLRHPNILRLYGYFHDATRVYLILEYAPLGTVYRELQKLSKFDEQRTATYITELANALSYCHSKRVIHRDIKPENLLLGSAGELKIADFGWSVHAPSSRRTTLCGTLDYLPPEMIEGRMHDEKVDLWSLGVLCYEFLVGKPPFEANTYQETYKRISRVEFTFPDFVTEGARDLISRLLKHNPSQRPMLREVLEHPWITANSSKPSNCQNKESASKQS
To be noted: for inhibition at 0.1 µM: 100 nM; for inhibition at 0.5 µM: 500 nM. The protocol:
(§1) Screening of Compounds 1-4 against several kinases identified two prominent targets of these compounds as the Aurora A kinase and calcium dependent protein kinase C isoforms α, βI, βII and […] (Tables 1 to 3). IC50s for these two targets were obtained by plotting inhibition levels at 500 nM, 100 nM, 50 nM and 10 nM (FIG. 3). These kinases are directly involved in pathways controlling cell differentiation programs, metastasis signaling, as well as EMT and CSC programming and their overexpression was reported to predict decreased metastasis-free survival.

The next assay deals with RAF1 (cRAF) Y340D Y341D (Homo sapiens, UniProt P04049, Y340D/Y341D). Conditions: 500 nM; read-out: Percent inhibition of kinase activity in vitro, RAF1 (cRAF) Y340D Y341D. How it is done: as §1
The next assay deals with T2, TGFBR1 (ALK5) (Homo sapiens, UniProt P36897).
T2 sequence (P36897 34-503): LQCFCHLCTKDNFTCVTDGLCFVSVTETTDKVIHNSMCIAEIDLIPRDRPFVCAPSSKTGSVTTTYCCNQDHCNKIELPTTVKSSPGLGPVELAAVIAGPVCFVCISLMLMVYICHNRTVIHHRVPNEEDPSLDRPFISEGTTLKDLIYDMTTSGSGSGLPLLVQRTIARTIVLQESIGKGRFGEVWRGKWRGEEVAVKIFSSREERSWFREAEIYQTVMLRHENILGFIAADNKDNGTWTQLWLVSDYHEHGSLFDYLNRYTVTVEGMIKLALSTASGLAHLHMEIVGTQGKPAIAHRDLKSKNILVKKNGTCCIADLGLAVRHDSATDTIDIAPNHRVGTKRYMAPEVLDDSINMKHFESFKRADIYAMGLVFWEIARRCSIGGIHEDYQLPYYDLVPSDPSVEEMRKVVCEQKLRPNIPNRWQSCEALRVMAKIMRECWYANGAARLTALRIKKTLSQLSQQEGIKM
Conditions: read-out: Percent inhibition of kinase activity in vitro, TGFBR1 (ALK5); for inhibition at 0.1 µM: 100 nM; for inhibition at 0.5 µM: 500 nM. How it is done: as §1

For another assay, the target named is T3, PRKCZ (PKC zeta) (Homo sapiens, UniProt Q05513).
T3 sequence (Q05513 1-592): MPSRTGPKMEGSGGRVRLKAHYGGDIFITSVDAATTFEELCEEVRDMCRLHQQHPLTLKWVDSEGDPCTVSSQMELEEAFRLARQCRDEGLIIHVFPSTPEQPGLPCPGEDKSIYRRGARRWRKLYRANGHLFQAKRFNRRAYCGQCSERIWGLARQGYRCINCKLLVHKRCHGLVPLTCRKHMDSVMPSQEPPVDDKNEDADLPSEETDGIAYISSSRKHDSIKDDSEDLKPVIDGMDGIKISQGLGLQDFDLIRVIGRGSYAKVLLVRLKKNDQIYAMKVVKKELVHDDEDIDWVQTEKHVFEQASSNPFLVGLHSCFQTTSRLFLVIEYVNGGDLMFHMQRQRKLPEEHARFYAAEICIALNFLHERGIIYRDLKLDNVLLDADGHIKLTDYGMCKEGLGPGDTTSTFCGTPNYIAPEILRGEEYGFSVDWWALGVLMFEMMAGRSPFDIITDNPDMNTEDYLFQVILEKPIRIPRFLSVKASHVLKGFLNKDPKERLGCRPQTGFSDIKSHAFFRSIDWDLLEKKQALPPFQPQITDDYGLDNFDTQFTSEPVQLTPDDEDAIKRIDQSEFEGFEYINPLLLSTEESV
Conditions: 50 nM; read-out: Percent inhibition of kinase activity in vitro, PRKCZ (PKC zeta). The protocol:
as §1

Another assay has as its target PRKCD (PKC delta) (Homo sapiens, UniProt Q05655). Conditions: 50 nM; read-out: Percent inhibition of kinase activity in vitro, PRKCD (PKC delta). How it is done:
as §1

The next assay concerns the target T4, PRKCE (PKC epsilon) (Homo sapiens, UniProt Q02156).
T4 sequence (Q02156 1-737): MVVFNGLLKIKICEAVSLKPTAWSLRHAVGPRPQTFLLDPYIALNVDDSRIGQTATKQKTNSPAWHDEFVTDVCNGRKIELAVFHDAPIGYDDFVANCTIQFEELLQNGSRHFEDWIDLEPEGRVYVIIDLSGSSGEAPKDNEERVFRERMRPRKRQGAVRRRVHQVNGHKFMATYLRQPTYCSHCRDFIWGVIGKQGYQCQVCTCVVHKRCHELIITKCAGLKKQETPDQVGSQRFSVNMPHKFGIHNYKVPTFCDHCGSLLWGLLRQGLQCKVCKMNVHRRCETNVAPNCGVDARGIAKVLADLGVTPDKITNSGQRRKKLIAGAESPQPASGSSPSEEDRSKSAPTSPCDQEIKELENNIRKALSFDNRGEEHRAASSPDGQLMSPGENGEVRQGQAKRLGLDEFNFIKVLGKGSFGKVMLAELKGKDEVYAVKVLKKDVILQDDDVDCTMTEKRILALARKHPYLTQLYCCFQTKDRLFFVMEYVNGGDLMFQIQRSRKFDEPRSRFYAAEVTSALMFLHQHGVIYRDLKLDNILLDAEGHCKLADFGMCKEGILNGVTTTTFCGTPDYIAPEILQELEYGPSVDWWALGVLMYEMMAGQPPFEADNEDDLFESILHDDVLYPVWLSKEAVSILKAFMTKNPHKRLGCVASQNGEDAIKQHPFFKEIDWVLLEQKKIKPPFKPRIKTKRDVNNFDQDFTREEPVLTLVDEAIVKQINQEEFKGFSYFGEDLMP
Conditions: 50 nM; read-out: Percent inhibition of kinase activity in vitro, PRKCE (PKC epsilon). The protocol: as §1

The next assay has as its target PRKCG (PKC gamma) (Homo sapiens, UniProt P05129). To be noted: 50 nM; read-out: Percent inhibition of kinase activity in vitro, PRKCG (PKC gamma). The protocol: as §1
The mark [1] stands for this setting: read-out: Percent inhibition of kinase activity in vitro, AURKA (Aurora A).

Chain of PRKCD (PKC delta) (Q05655 whole entry): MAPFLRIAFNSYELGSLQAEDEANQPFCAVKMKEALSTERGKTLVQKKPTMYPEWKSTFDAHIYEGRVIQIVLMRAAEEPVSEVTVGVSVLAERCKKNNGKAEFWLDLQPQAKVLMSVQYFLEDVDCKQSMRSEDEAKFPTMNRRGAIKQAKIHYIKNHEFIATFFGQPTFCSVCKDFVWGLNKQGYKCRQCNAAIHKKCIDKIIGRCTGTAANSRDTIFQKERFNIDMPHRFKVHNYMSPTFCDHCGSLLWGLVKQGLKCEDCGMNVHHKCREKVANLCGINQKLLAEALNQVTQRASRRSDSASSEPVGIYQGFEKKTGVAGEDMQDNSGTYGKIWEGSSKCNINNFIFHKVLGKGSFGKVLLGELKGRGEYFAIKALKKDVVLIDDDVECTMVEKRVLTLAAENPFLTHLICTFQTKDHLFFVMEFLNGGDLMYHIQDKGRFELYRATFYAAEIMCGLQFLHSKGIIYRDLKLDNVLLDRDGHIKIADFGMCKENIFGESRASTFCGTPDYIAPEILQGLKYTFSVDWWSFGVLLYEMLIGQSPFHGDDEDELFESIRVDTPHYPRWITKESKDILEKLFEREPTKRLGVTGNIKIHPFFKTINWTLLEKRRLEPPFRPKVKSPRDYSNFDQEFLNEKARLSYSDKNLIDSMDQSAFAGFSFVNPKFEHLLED
Chain of RAF1 (cRAF) Y340D Y341D (P04049 whole entry Y340D/Y341D): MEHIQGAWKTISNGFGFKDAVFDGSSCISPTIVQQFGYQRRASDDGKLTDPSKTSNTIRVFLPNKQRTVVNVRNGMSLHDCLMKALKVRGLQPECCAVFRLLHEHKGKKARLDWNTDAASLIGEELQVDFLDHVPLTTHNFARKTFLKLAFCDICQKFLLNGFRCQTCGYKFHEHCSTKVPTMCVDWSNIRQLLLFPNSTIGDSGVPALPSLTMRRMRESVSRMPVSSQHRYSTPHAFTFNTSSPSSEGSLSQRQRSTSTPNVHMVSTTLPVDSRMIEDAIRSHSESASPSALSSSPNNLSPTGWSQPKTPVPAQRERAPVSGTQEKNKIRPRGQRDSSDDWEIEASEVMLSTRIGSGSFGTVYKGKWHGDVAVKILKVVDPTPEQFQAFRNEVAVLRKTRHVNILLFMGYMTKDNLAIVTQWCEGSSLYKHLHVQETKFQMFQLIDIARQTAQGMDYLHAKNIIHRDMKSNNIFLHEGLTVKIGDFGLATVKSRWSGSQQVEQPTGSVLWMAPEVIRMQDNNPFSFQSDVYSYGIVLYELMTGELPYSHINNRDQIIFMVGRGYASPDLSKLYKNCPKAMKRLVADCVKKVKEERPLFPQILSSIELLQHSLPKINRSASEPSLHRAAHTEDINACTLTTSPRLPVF

On to `O=c1c2ccccc2[se]n1-c1nc(NC2CCCCC2)c2nc[nH]c2n1` [Compound 1], for which the inhibition at 0.1 µM at AURKA (Aurora A) (setting [1]) came to 89%; on TGFBR1 (ALK5), 0%. For the same compound, the inhibition at 0.5 µM was determined as 94% at AURKA (Aurora A) (setting [1]), 4% at RAF1 (cRAF) Y340D Y341D and 0% at TGFBR1 (ALK5). Further, the inhibition at 0.05 µM is 9% on PRKCZ (PKC zeta), 0% on PRKCD (PKC delta), 6% at PRKCE (PKC epsilon) and 45% at PRKCG (PKC gamma).
For the compound `O=c1c2ccccc2[se]n1-c1nc(NC2CC[Se]C2)c2nc[nH]c2n1` (stereo not shown) [Compound 2], the inhibition at 0.1 µM was 93% on AURKA (Aurora A) (setting [1]) and 0% at TGFBR1 (ALK5). The inhibition at 0.5 µM at AURKA (Aurora A) (setting [1]) was determined as 97%; at RAF1 (cRAF) Y340D Y341D it was 0%; at TGFBR1 (ALK5), 0%.
As to `C[C@@H]1C(Nc2nc(-n3[se]c4ccccc4c3=O)nc3[nH]cnc23)C[C@H]2C[C@@H]1C2(C)C` (stereo partly shown) [Compound 3], the inhibition at 0.1 µM turned out to be 78% on AURKA (Aurora A) (setting [1]) and 3% on TGFBR1 (ALK5). Besides, the inhibition at 0.5 µM at AURKA (Aurora A) (setting [1]) was 99%; on RAF1 (cRAF) Y340D Y341D it was 10%; on TGFBR1 (ALK5) it was 0%.
With `O=c1c2ccccc2[se]n1-c1nc(N[C@H]2CC[Se]C2)c2nc[nH]c2n1` [Compound 4], the inhibition at 0.01 µM at AURKA (Aurora A) (10 nM, read-out: Percent inhibition of kinase activity in vitro, AURKA (Aurora A)) worked out at 55%. In addition, the inhibition at 0.05 µM is 87% at AURKA (Aurora A) (50 nM, read-out: Percent inhibition of kinase activity in vitro, AURKA (Aurora A)); 12% on PRKCZ (PKC zeta); 0% on PRKCD (PKC delta); 5% on PRKCE (PKC epsilon); 47% at PRKCG (PKC gamma). The figures for the inhibition at 0.1 µM on AURKA (Aurora A) (setting [1]) and at TGFBR1 (ALK5) were 95% and 0%, respectively. Moreover, at AURKA (Aurora A) (from inhibition levels at 500, 100, 50 and 10 nM), half-maximal inhibition (IC50) was put at 3.8 nM.
For the compound `O=C1c2ccccc2CN1c1nc(NC2CCCCC2)c2nc[nH]c2n1` [SLLN-6C, reference compound], the inhibition at 0.1 µM at AURKA (Aurora A) (setting [1]) was determined as 4%; at TGFBR1 (ALK5), 0%. Further, the inhibition at 0.05 µM amounted to 9% on PRKCZ (PKC zeta), 0% on PRKCD (PKC delta), 4% at PRKCE (PKC epsilon) and 0% at PRKCG (PKC gamma).
